Source: US8759357B2, “Inhibitors of fatty acid binding protein (FABP)” (Merck Sharp & Dohme Corp., priority 2009, dated 2014)

Tests used:
FABP4 = FABP4 (Homo sapiens, UniProt P15090); experiment: TdF (Temperature Dependence Fluorescence) thermal shift assay for FABP4; format: binding; conditions: 3 μM protein; 15, 50 or 100 μM compound; Kd from ΔTm
Description: TdF (Temperature Dependence Fluorescence) Assay for FABP3 and FABP4
The SAR (Structure Activity Relationship) for FABP3 and FABP4 ligands covered by this invention was interrogated using the TdF (Temperature Dependence Fluorescence) assay or best known as thermal shift assay (M. W. Pantoliana et al, J. Biomol. Screen 6 (2001) 429-440). The TdF assay was mainly conducted in the 96-well based CHROMO-4 real time fluorescence plate reader (BioRad). The Sypro Orange (Sigma-Aldrich), environmentally sensitive fluorescence dye, was used to monitor the protein folding-unfolding transition. Protein-ligand binding was gauged by the change (or shift) in the unfolding transition temperature (ΔTm) acquired at protein alone with respect to protein in the presence of ligand of interest.
The compound of interest was first prepared in DMSO stock (typical concentration: 10 mM). Sample of 20 μL was then added into the 96-well PCR plate, where it consisted of 3 μM protein (FABP4 or FABP3) and 15, 50 or 100 μM compound (depending on compound's solubility) in buffer (25 mM HEPES, 150 mM NaCl, pH=7.5 and 1 mM DTT) incorporated with Sypro Orange dye (5× final concentration). Final percentage of DMSO resided in the sample was 2%. The sample plate was heated from 30° C. to 90° C. with thermal ramping rate of 1° C./min. The fluorescence signals were acquired with excitation and emission wavelengths centered at 490 and 560 nm respectively. The instrument thermal stability was ±0.2° C. The melting Temperatures™ for FABP4 and FABP3 proteins under aforementioned conditions occurred at 61.0±0.2° C. and 64.8±0.2° C. respectively.
Theoretical Basis for TdF-Based Ligand Binding Affinity Constant
The derivation of TdF-based ligand binding affinity constant (Kd) followed closely those previously formulated by Brandts and Lin, Biochemistry 29 (1990) 6927-6940. In brief, the binding constant of the ligand at the Tm is expressed as below:
[formula] where T0 is the midpoint of unfolding for unliganded protein and Tm is the midpoint of unfolding in presence of ligand. [LTm] is free ligand at Tm. The ΔHu and ΔCpu are the enthalpy of unfolding and heat capacity change of unfolding for the protein respectively. The ΔCPu is proportional to the size of protein and is an approximate quantity in the above equation (empirically, ΔCpu=(MW of protein/115)*14 cal/mol*K). Following algorithm derived by Mayhood et al, (Analytical Biochemistry 345 (2005) 187-197), the T0 and ΔHu can be determined separately from nonlinear regression fitting the temperature dependent protein alone curve to the following equation: […]
Where F(T) is the observed fluorescence intensity at any temperature T, Yn and Yu are the predicted fluorescence intensities for fully folded and unfolded protein, respectively; mn and mu are slope correction for changes in Yn and Yu with respect to changes in temperature (analogously replace T0 with Tm in the above equation for liganded protein to yield Tm). The nonlinear regression fitting in general readily reaches convergence by properly constraining the initial values for the fitting parameters (e.g. the initial “guess” for the ΔHu was constrained to 120 kcal/mol; initial Yn and mn were set to 1 and zero to best represent the melting curve along the low temperature region; negative slope of −0.5 was initially chosen for mu; initial Tm was also constrained to 50° C.).
Finally, the ligand binding affinity constant at any temperature T 25° C.) can be thermodynamically connected to the preceding KL™ via
[formula] (see Brandts et al and Mayhood et al, shown above) where ΔHL (T) is the van't Hoff enthalpy of ligand binding at temperature T and ΔCpL is the heat capacity upon ligand binding. For simplicity, the ΔCpL and ΔHL (T) were set to zero and −7 kcal/mol respectively. […]

FABP5 = FABP5 (Homo sapiens, UniProt Q01469); experiment: TdCD (Temperature-Dependent Circular Dichroism) assay for FABP5; format: binding; conditions: compounds at 50 μM and 25 μM; Kd calculated at T=20° C.; 50% uncertainty
FABP5, sequence (Q01469 whole entry): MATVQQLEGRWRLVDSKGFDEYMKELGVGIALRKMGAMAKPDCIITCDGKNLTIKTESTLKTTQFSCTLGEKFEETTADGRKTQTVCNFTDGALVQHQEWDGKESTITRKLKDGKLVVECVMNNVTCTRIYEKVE
Description: [formula] (see Brandts et al and Mayhood et al, shown above) where ΔHL (T) is the van't Hoff enthalpy of ligand binding at temperature T and ΔCpL is the heat capacity upon ligand binding. For simplicity, the ΔCpL and ΔHL (T) were set to zero and −7 kcal/mol respectively. (The ΔCpL accounts for minimal portion of total protein-ligand binding energetics and is therefore set to zero (For example, see Hossein Naghibi et al, Proc. Natl. Acad. Sci. 92, 5597-5599 (1995), where ΔCpL was estimated to ˜2% of ΔHL at 25° C. obtained from calorimetric study of binding Rnase A and 2′-CMP)). TdCD (Temperature-Dependent Circular Dichroism) Assay for FABP3/4/5
JASCO 810 spectropolarimeter was used to measure Circular Dichroism (CD) spectra and temperature-dependent protein unfolding profiles. The instrument is equipped with a 6-cell piezoelectric temperature controller. Ellipticity was monitored at 226 nm as a function of temperature with a 1 mm path length cell. The scan rate was 1° C./min with a 4 s response time and 30 s equilibration between measurements.
Stock protein FABP5 (3.5 mgs/mL), FABP4 (1.8 mgs/mL) and FABP3 (3 mgs/mL) were diluted to 10-15 μM with 25 mM HEPES pH 7.5, 150 mM NaCl, 1 mM DTT. 10 mM stocks of individual compounds were made in 100% DMSO. The compounds were tested at 50 μM and 25 μM concentrations. DMSO was added to protein-alone (apo) samples to 1% to compensate for DMSO amounts in protein+ligand samples. Data were analyzed using Jasco software and the midpoints of the protein unfolding Transitions™, and the ligand binding constants (KL) were calculated as previously described (See, for example, Mayhood et al, Analytical Biochemistry 345 (2005) 187-197; Smith et al, Biochemistry 46 (2007) 1358-1367; Brandts et al, Biochemistry 29 (1990) 6927-6940; and Matulis et al, Biochemistry 44 (2005) 5258-5266).
Briefly, the To (midpoint of unfolding for the unliganded protein) was calculated from best fit of the unfolding data to the equation below:
[formula] Where, Yobs is the observed ellipticity value at any temperature T, Yn and Yu are the predicted ellipticity values for fully folded and unfolded species, respectively, mn and mu are slope correction for changes in Yn and Yu with respect to changes in temperature. To is the midpoint temperature at which the unliganded protein unfolds and ΔHu and ΔCpu are the heat of unfolding and heat capacity of unfolding, respectively for the unliganded species.
In presence of ligand, the midpoint Temperature™ defines where the equilibrium concentrations of unfolded and folded species are equal. Incorporation of the unliganded free energy of binding and subsequent thermodynamic substitution yielded the binding constant of the ligand at the Tm value of unfolding:
[formula] where, T0 is the midpoint of unfolding for unliganded protein and Tm is the midpoint of unfolding in presence of ligand. [LTm] is free ligand at Tm.
Based on estimates for enthalpy of binding, ΔHL (estimated to be −7 kcal/mol) and ligand binding heat capacity ΔCpL (set to be zero), the ligand binding association constant (KL) at temperature T=20° C. were calculated as below. Based on reasonable boundary change of the estimated ligand binding ΔHL, a 50% uncertainty was uniformly assigned to the calculated TdCD Kd (1/KL) values at T=20° C.

FABP4, sequence (P15090 whole entry): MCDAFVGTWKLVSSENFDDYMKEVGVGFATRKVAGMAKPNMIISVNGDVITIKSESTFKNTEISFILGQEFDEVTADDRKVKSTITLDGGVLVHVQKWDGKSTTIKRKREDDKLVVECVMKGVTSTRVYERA

SMILES | Kd (FABP4) | Kd (FABP5)
O=c1cc(COCc2ccccc2C(F)(F)F)[nH]c2nc(-c3ccccc3)nn12 [1-140] | > 5000 nM | 0.5 to 100 µM
O=C(O)c1cccc(COCc2cc(=O)n3nc(-c4ccccc4)nc3[nH]2)c1 [1-133] | 200 to 5000 nM | 0.5 to 100 µM
CCC(OCc1cc(=O)n2nc(-c3ccccc3)nc2[nH]1)C1CCCCC1 (stereo not shown) [1-121] | 1 to 200 nM | 0.5 to 100 µM
CC(OCc1cc(=O)n2nc(-c3ccccc3)nc2[nH]1)c1ccccc1Cl (stereo not shown) [1-117] | 1 to 200 nM | 0.5 to 100 µM
CC(C)(Cc1ccccc1)OCc1cc(=O)n2nc(-c3ccccc3)nc2[nH]1 [1-120] | 1 to 200 nM | 0.5 to 100 µM
CC(OCc1cc(=O)n2nc(-c3ccccc3)nc2[nH]1)C1CCCCC1 (stereo not shown) [1-124] | 1 to 200 nM | 0.5 to 100 µM
CC(OCc1cc(=O)n2nc(-c3ccccc3)nc2[nH]1)c1ccccc1F (stereo not shown) [1-132] | 200 to 5000 nM | 0.5 to 100 µM
O=c1cc(COCC2CCCCC2)[nH]c2nc(-c3ccccc3)nn12 [1-125] | 1 to 200 nM | 0.5 to 100 µM
CCC(OCc1cc(=O)n2nc(-c3ccccc3)nc2[nH]1)c1ccccc1Cl (stereo not shown) [1-153] | 1 to 200 nM | 0.5 to 100 µM
CC[C@H](OCc1cc(=O)n2nc(-c3ccccc3)nc2[nH]1)c1ccccc1 [1-123] | > 5000 nM | 0.5 to 100 µM
O=c1cc(COC(CC2CC2)c2ccccc2)[nH]c2nc(-c3ccccc3)nn12 (stereo not shown) [1-126] | 200 to 5000 nM | 0.5 to 100 µM
O=c1cc(COCc2cccnc2F)[nH]c2nc(-c3ccccc3)nn12 [1-127] | 200 to 5000 nM | 0.5 to 100 µM
C=CCC(OCc1cc(=O)n2nc(-c3ccccc3)nc2[nH]1)c1ccccc1Cl (stereo not shown) [1-130] | 1 to 200 nM | 0.5 to 100 µM
O=c1cc(COCC2(c3cccc(C(F)(F)F)c3)CC2)[nH]c2nc(-c3ccccc3)nn12 [1-129] | 1 to 200 nM | 0.5 to 100 µM
O=c1cc(COCc2ccccc2Cl)[nH]c2nc(-c3ccccc3)nn12 [1-154] | 1 to 200 nM | 0.5 to 100 µM
CN(Cc1ccc(C(F)(F)F)cc1)Cc1cc(=O)n2nc(-c3ccccc3)nc2[nH]1 [1-53] | 200 to 5000 nM | 0.5 to 100 µM
O=c1cc(COCc2cccnc2Cl)[nH]c2nc(-c3ccccc3)nn12 [1-128] | 200 to 5000 nM | 0.5 to 100 µM
O=c1cc(COC(c2ccccc2)C2CC2)[nH]c2nc(-c3ccccc3)nn12 (stereo not shown) [1-116] | 200 to 5000 nM | 0.5 to 100 µM
O=c1cc(COCc2cccc(Cl)c2Cl)[nH]c2nc(-c3ccccc3)nn12 [1-145] | 200 to 5000 nM | 0.5 to 100 µM
CCC[C@H](OCc1cc(=O)n2nc(-c3ccccc3)nc2[nH]1)c1ccccc1 [1-122] | > 5000 nM | 0.5 to 100 µM
O=c1cc(COCc2ccccc2)[nH]c2nc(-c3ccccc3)nn12 [1-144] | 200 to 5000 nM | 0.5 to 100 µM
O=c1cc(CNC2(c3cccc(C(F)(F)F)c3)CC2)[nH]c2nc(-c3ccccc3)nn12 [1-137] | 200 to 5000 nM | 0.5 to 100 µM
O=c1cc(CNCC2(c3cccc(C(F)(F)F)c3)CC2)[nH]c2nc(-c3ccccc3)nn12 [1-138] | 200 to 5000 nM | 0.5 to 100 µM
O=c1cc(COCC2(c3cccc(F)c3)CC2)[nH]c2nc(-c3ccccc3)nn12 [1-119] | 1 to 200 nM | 0.5 to 100 µM

The next lines start with the values.

Kd (FABP4) | Kd (FABP5) | SMILES
1 to 200 nM | 0.5 to 100 µM | [2H]C([2H])([2H])OC(C(=O)NCC1(c2ccc(Cl)cc2)CCC1)(C([2H])([2H])[2H])C([2H])([2H])c1cc(=O)n2nc(-c3ccccc3)nc2[nH]1 (stereo not shown) [37-2]
1 to 200 nM | 0.5 to 100 µM | CC(Cc1cc(=O)n2nc(-c3ccccc3)nc2[nH]1)(Oc1cccc(Cl)c1)C(=O)NCC1(c2ccccc2Cl)CC1 (stereo not shown) [35-5]
1 to 200 nM | 0.5 to 100 µM | Cc1c(Cl)cccc1OC(C)(C)COCc1cc(=O)n2nc(-c3ccccc3)nc2[nH]1 [27-3]
1 to 200 nM | 0.5 to 100 µM | Cc1ccccc1OC(C)(C)COCc1cc(=O)n2nc(-c3ccccc3)nc2[nH]1 [27-4]
> 5000 nM | 0.5 to 100 µM | CC(Cc1cc(=O)n2nc(-c3ccccc3)nc2[nH]1)(Oc1cccc(Cl)c1)C(=O)O (stereo not shown) [35-4]
1 to 200 nM | 0.5 to 100 µM | COC(C)(Cc1cc(=O)n2nc(-c3ccccc3)nc2[nH]1)C(=O)NCC1(c2ccc(Cl)cc2)CCC1 (stereo not shown) [36-2]
> 5000 nM | 0.5 to 100 µM | O=c1cc(COC(CO)c2ccccc2Cl)[nH]c2nc(-c3ccccc3)nn12 (stereo not shown) [34-2]
> 5000 nM | 0.5 to 100 µM | O=c1cc(COCC(O)c2ccccc2Cl)[nH]c2nc(-c3ccccc3)nn12 (stereo not shown) [34-1]
